Consider 1 compound from ChEMBL document CHEMBL1649342, “Synthesis of azafluorenone antimicrobial agents” (2010).

In general, MIC refers to the least concentration at which growth counts as inhibited.

What all share (type): functional
The subject of one assay is Bacillus subtilis. Nature of the assay: Antimicrobial activity against Bacillus subtilis IFO 3007.
In another assay the test system is Saccharomyces cerevisiae. Briefly: Antimicrobial activity against Saccharomyces cerevisiae IFO 0203.
Another assay concerns Candida albicans. Nature of the assay: Antimicrobial activity against Candida albicans B311.
Another assay deals with Staphylococcus aureus. Nature of the assay: Antimicrobial activity against Staphylococcus aureus NCTC 8530.
The test system of another assay is Escherichia coli. Briefly: Antimicrobial activity against Escherichia coli IFO 3545.

Values after ≈ are worked out from the molar mass of the structure shown.

Turning to `Cc1ccnc2c1C(=O)c1ccccc1-2` [ONYCHINE], the MIC in the assay on Bacillus subtilis came to 50 µg/mL (≈ 256 µM); against Saccharomyces cerevisiae, 50 µg/mL (≈ 256 µM); against Candida albicans, 3.12 µg/mL (≈ 16 µM); with Staphylococcus aureus it was 50 µg/mL (≈ 256 µM); with Escherichia coli, 50 µg/mL (≈ 256 µM).
